Measurements taken from patent publication US8338565B2, “Macrocyclic compounds for inhibition of tumor necrosis factor alpha” (Ensemble Therapeutics Corporation, priority 2008, dated 2012).
Read-outs that look alike come from different tables or passages of the source. Numbered stars: 1 amine (or outer) side, 2 acyl side, 3 side chain; on linkers, the order of the positions; unused ones are H or OH. Bridge positions count the residues as written; N and C are the ends. Square brackets hold non-standard residues; d marks the D form. Peptide text beside a SMILES is read from it. Phe(4-CF3) = N[C@@H](Cc1ccc(C(F)(F)F)cc1)C(=O)O; Bip = N[C@@H](Cc1ccc(-c2ccccc2)cc1)C(=O)O; dPhe(4-NH2) = Nc1ccc(C[C@@H](N)C(=O)O)cc1; Phe(4-Br) = N[C@@H](Cc1ccc(Br)cc1)C(=O)O; Phe(4-NH2) = Nc1ccc(C[C@H](N)C(=O)O)cc1; dAla(2-furyl) = N[C@H](Cc1ccco1)C(=O)O; dPhe(2-Cl) = N[C@H](Cc1ccccc1Cl)C(=O)O; d(hPhe) = N[C@H](CCc1ccccc1)C(=O)O; Malonyl = O=C(CC(=O)[*:2])[*:1]; d2Thi = N[C@H](Cc1cccs1)C(=O)O; d3Thi = N[C@H](Cc1ccsc1)C(=O)O; Suc = O=C(CCC(=O)[*:2])[*:1]; NMeA = CN[C@@H](C)C(=O)O; βAla = NCCC(=O)O

Biological target: T1, TNFα / TNFα receptor (TNFα R1/Fc) (Homo sapiens, UniProt P01375)
T1 construct: purchased R&D Systems
Experiment: Inhibition of binding of TNFα to the TNFα receptor (plate ELISA competition)
Details: Table 2
Procedure, shortened: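 Plates were coated with TNFα at 15 nM. Test compound and 8.33 nM receptor-Fc (PBST, 2% DMSO) were first mixed in solution for 30 min at room temperature, then transferred to the plates for another 30 min. Competition was read by absorbance at 450 nm after HRP anti-human IgG Fc detection with TMB.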

[1] = read-out: Activity (IC50, inhibition of TNFα binding to TNFα R1/Fc)

T1 sequence (P01375 77-233 limits assumed, species assumed): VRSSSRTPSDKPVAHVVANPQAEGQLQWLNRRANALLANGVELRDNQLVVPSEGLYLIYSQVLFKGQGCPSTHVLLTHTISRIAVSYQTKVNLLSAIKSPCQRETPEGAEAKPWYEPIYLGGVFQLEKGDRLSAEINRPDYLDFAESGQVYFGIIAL

Structure (SMILES)	IC50 [1] [µM]	IC50 (Activity (IC50, inhibition of TNFα binding to TNFα R1/Fc)) [µM]
O=C1COc2ccc(cc2)C[C@@H](C(=O)NCCO)NC(=O)[C@@H](CCc2ccccc2)NC(=O)[C@H](Cc2ccc(-c3ccccc3)cc2)NC(=O)[C@@H](Cc2cccs2)N1 [Compound 322]	10 to 30	–
O=C1COc2ccc(cc2)C[C@@H](C(=O)O)NC(=O)[C@H](Cc2ccccc2F)NC(=O)[C@@H](Cc2ccc(-c3ccccc3)cc2)NC(=O)[C@H](Cc2c[nH]c3ccccc23)N1 [Compound 733]	< 10	–
O=C(O)[C@H](Cc1ccccc1)NC(=O)[C@@H]1Cc2ccc(cc2)NC(=O)[C@H](O)[C@@H](O)C(=O)N[C@@H](Cc2cccs2)C(=O)N[C@H](Cc2ccc(-c3ccccc3)cc2)C(=O)N[C@@H](CCc2ccccc2)C(=O)N1 [Compound 433]	> 100	–
O=C(O)[C@@H]1Cc2ccc(cc2)NC(=O)[C@H](O)[C@@H](O)C(=O)N[C@H](Cc2ccc(F)cc2)C(=O)N[C@@H](Cc2ccc(-c3ccccc3)cc2)C(=O)N[C@H](Cc2ccccc2)C(=O)N1 [Compound 261]	30 to 100	–
C[C@@H](NC(=O)[C@@H]1Cc2ccc(cc2)OCC(=O)N[C@@H](Cc2ccncc2)C(=O)N[C@H](Cc2ccc(-c3ccccc3)cc2)C(=O)N[C@@H](CCc2ccccc2)C(=O)N1)C(=O)O [Compound 557]	< 10	–
O=C(O)[C@H](Cc1ccccc1)NC(=O)[C@H]1Cc2ccc(cc2)NC(=O)[C@H](O)[C@@H](O)C(=O)N[C@@H](Cc2cccs2)C(=O)N[C@H](Cc2ccc(-c3ccccc3)cc2)C(=O)N[C@@H](Cc2ccccc2)C(=O)N1 [Compound 434]	< 10	–
O=C(O)CCNC(=O)[C@@H]1Cc2ccc(cc2)NC(=O)CCC(=O)N[C@H](Cc2cccs2)C(=O)N[C@@H](Cc2ccc(-c3ccccc3)cc2)C(=O)N[C@H](CCc2ccccc2)C(=O)N1 [Compound 448] ([d2Thi][Bip][d(hPhe)][Phe(4-NH2)][βAla]-OH; linker N-4 via Suc)	10 to 30	–
O=C1CCC(=O)N[C@H](Cc2cccs2)C(=O)N[C@@H](Cc2ccc(Br)cc2)C(=O)N[C@H](Cc2ccco2)C(=O)N[C@@H](C(=O)O)Cc2ccc(cc2)N1 [Compound 159] ([d2Thi][Phe(4-Br)][dAla(2-furyl)][dPhe(4-NH2)]-OH; linker N-4 via Suc)	10 to 30	–
O=C1COc2ccc(cc2)C[C@@H](C(=O)O)NC(=O)[C@H](Cc2ccc(-c3ccccn3)cc2)NC(=O)[C@@H](Cc2ccc(-c3ccccc3)cc2)NC(=O)[C@H](Cc2ccncc2)N1 [Compound 643]	< 10	–
O=C1COc2ccc(cc2)C[C@@H](C(=O)N[C@H](Cc2ccccc2)C(=O)O)NC(=O)[C@H](CCc2ccccc2)NC(=O)[C@@H](Cc2ccc(-c3ccccc3)cc2)NC(=O)[C@H](Cc2ccc(-c3ccncc3)cc2)N1 [Compound 582]	< 10	–
O=C1COc2ccc(cc2)C[C@@H](C(=O)N[C@H](Cc2ccc(O)cc2)C(=O)O)NC(=O)[C@H](CCc2ccccc2)NC(=O)[C@@H](Cc2ccc(-c3ccccc3)cc2)NC(=O)[C@H](Cc2ccc(-c3ccncc3)cc2)N1 [Compound 586]	< 10	–
O=C1COc2ccc(cc2)C[C@@H](C(=O)O)NC(=O)[C@H](Cc2ccccc2)NC(=O)[C@@H](Cc2cccc3ccccc23)NC(=O)[C@H](Cc2cccs2)N1 [Compound 357]	> 100	–
O=C1CCC(=O)N[C@H](Cc2ccccc2Cl)C(=O)N[C@@H](Cc2ccc(C(F)(F)F)cc2)C(=O)N[C@H](Cc2ccccc2)C(=O)N[C@H](C(=O)O)Cc2ccc(cc2)N1 [Compound 132] ([dPhe(2-Cl)][Phe(4-CF3)][dF][Phe(4-NH2)]-OH; linker N-4 via Suc)	30 to 100	–
O=C(O)[C@@H]1Cc2ccc(cc2)NC(=O)[C@H](O)[C@@H](O)C(=O)N[C@H](Cc2cccs2)C(=O)N[C@@H](Cc2ccc(-c3ccc(F)cc3)cc2)C(=O)N[C@H](Cc2ccccc2)C(=O)N1 [Compound 334]	30 to 100	–
O=C1CCC(=O)N[C@H](CCc2ccccc2)C(=O)N[C@@H](Cc2ccc(-n3cccn3)cc2)C(=O)N[C@H](Cc2ccccc2)C(=O)N[C@H](C(=O)O)Cc2ccc(cc2)N1 [Compound 115]	> 100	–
O=C1COc2ccc(cc2)C[C@@H](C(=O)O)NC(=O)[C@H](Cc2ccc(F)cc2)NC(=O)[C@@H](Cc2ccc(-c3ccccc3)cc2)NC(=O)[C@H](Cc2ccncc2)N1 [Compound 637]	< 10	–
C[C@@H]1NC(=O)[C@@H](Cc2cccs2)NC(=O)CCC(=O)Nc2ccc(cc2)C[C@@H](C(=O)O)NC(=O)[C@@H](Cc2ccccc2)NC1=O [Compound 45] ([d2Thi]A[dF][Phe(4-NH2)]-OH; linker N-4 via Suc)	> 100	–
O=C1N[C@@H](Cc2ccccc2)C(=O)N[C@@H](C(=O)O)Cc2ccc(cc2)NC(=O)[C@H](O)[C@@H](O)C(=O)N[C@@H](Cc2cccs2)C(=O)N[C@H]1Cc1ccc(-c2ccccc2)cc1 [Compound 280]	> 100	–
O=C1COc2ccc(cc2)C[C@@H](C(=O)N[C@H](CCc2ccccc2)C(=O)O)NC(=O)[C@H](Cc2ccccc2F)NC(=O)[C@@H](Cc2ccc(-c3ccccc3)cc2)NC(=O)[C@H](Cc2ccncc2)N1 [Compound 742]	< 10	–
O=C1COc2ccc(cc2)C[C@@H](C(=O)O)NC(=O)[C@H](Cc2ccccc2)NC(=O)[C@@H](Cc2ccc(-c3ccccc3)cc2)NC(=O)[C@@H](Cc2cccs2)N1 [Compound 211]	30 to 100	–

Structure (SMILES)	IC50 [1] [µM]	IC50 (Activity (IC50, inhibition of TNFα binding to TNFα R1/Fc)) [µM]
O=C1CCC(=O)N[C@H](Cc2cccs2)C(=O)N[C@@H](Cc2ccc(-c3ccccc3)cc2)C(=O)N[C@H](Cc2ccccc2)C(=O)N[C@H](C(=O)N2CCC[C@H]2C(=O)O)Cc2ccc(cc2)N1 [Compound 199] ([d2Thi][Bip][dF][Phe(4-NH2)]P-OH; linker N-4 via Suc)	> 100	–
C[C@@H](C(=O)O)N(C)C(=O)[C@@H]1Cc2ccc(cc2)NC(=O)CCC(=O)N[C@H](Cc2cccs2)C(=O)N[C@@H](Cc2ccc(-c3ccccc3)cc2)C(=O)N[C@H](Cc2ccccc2)C(=O)N1 [Compound 30] ([d2Thi][Bip][dF][Phe(4-NH2)][NMeA]-OH; linker N-4 via Suc)	10 to 30	–
O=C1COc2ccc(cc2)C[C@@H](C(=O)O)NC(=O)[C@H](CCc2ccccc2)NC(=O)[C@@H](Cc2ccc(-c3ccccc3)cc2)NC(=O)[C@H](Cc2cccc3ccccc23)N1 [Compound 694]	< 10	–
O=C(O)[C@@H]1Cc2ccc(cc2)NC(=O)[C@H](O)[C@@H](O)C(=O)N[C@H](Cc2cccs2)C(=O)N[C@@H](Cc2ccc(-c3cccc(O)c3)cc2)C(=O)N[C@H](Cc2ccccc2)C(=O)N1 [Compound 188]	> 100	–
C[C@H](C(=O)O)N(C)C(=O)[C@@H]1Cc2ccc(cc2)OCC(=O)N[C@@H](Cc2cccs2)C(=O)N[C@H](Cc2ccc(-c3ccccc3)cc2)C(=O)N[C@@H](CCc2ccccc2)C(=O)N1 [Compound 576]	–	< 10
O=C1CCC(=O)N[C@H](Cc2cccs2)C(=O)N[C@@H](Cc2ccc(-c3ccccc3)cc2)C(=O)N[C@H](Cc2ccsc2)C(=O)N[C@H](C(=O)O)Cc2ccc(cc2)N1 [Compound 75] ([d2Thi][Bip][d3Thi][Phe(4-NH2)]-OH; linker N-4 via Suc)	30 to 100	–
O=C(O)[C@H](Cc1ccccc1)NC(=O)[C@H]1Cc2ccc(cc2)NC(=O)[C@H](O)[C@@H](O)C(=O)N[C@H](Cc2cccs2)C(=O)N[C@@H](Cc2ccc(-c3ccccc3)cc2)C(=O)N[C@H](Cc2ccccc2)C(=O)N1 [Compound 430]	10 to 30	–
O=C(O)CNC(=O)[C@@H]1Cc2ccc(cc2)OCC(=O)N[C@@H](Cc2cccs2)C(=O)N[C@@H](Cc2ccc(-c3ccccc3)cc2)C(=O)N[C@@H](Cc2ccccc2)C(=O)N1 [Compound 329]	< 10	–
O=C1COc2ccc(cc2)C[C@@H](C(=O)O)NC(=O)[C@H](Cc2ccccc2)NC(=O)[C@H](Cc2ccc(-c3ccccc3)cc2)NC(=O)[C@@H](Cc2cccs2)N1 [Compound 213]	> 100	–
CC(C)(C)OC(=O)C[C@H](NC(=O)[C@@H]1Cc2ccc(cc2)OCC(=O)N[C@@H](Cc2cccs2)C(=O)N[C@H](Cc2ccc(-c3ccccc3)cc2)C(=O)N[C@@H](Cc2ccccc2)C(=O)N1)C(=O)O [Compound 389]	> 100	–
O=C1CC(=O)N[C@H](Cc2cccs2)C(=O)N[C@@H](Cc2ccc(-c3ccccc3)cc2)C(=O)N[C@H](Cc2ccccc2)C(=O)N[C@H](C(=O)O)Cc2ccc(cc2)N1 [Compound 5] ([d2Thi][Bip][dF][Phe(4-NH2)]-OH; linker N-4 via Malonyl)	30 to 100	–
O=C(O)[C@H](Cc1ccccc1)NC(=O)[C@@H]1Cc2ccc(cc2)NC(=O)[C@H](O)[C@@H](O)C(=O)N[C@@H](Cc2cccs2)C(=O)N[C@H](Cc2ccc(-c3ccccc3)cc2)C(=O)N[C@@H](Cc2ccccc2)C(=O)N1 [Compound 435]	< 10	–
O=C1COc2ccc(cc2)C[C@@H](C(=O)O)NC(=O)[C@H](CCc2ccccc2)NC(=O)[C@@H](Cc2ccc(-c3ccccn3)cc2)NC(=O)[C@H](Cc2ccncc2)N1 [Compound 664]	30 to 100	–
O=C1COc2ccc(cc2)C[C@@H](C(=O)N[C@@H](Cc2ccc(O)cc2)C(=O)O)NC(=O)[C@H](CCc2ccccc2)NC(=O)[C@@H](Cc2ccc(-c3ccccc3)cc2)NC(=O)[C@H](Cc2ccc(-c3ccncc3)cc2)N1 [Compound 585]	< 10	–
O=C1COc2ccc(cc2)C[C@@H](C(=O)O)NC(=O)[C@H](CCc2ccccc2)NC(=O)[C@@H](Cc2ccc(-c3ccccc3)cc2)NC(=O)[C@H](Cc2ccc3ccccc3c2)N1 [Compound 695]	< 10	–
COc1ccc(C[C@@H]2NC(=O)[C@@H](Cc3ccc(-c4ccccc4)cc3)NC(=O)[C@H](Cc3cccs3)NC(=O)COc3ccc(cc3)C[C@@H](C(=O)O)NC2=O)cc1 [Compound 630]	10 to 30	–
O=C(O)CCNC(=O)[C@@H]1Cc2ccc(cc2)OCC(=O)N[C@@H](Cc2cccs2)C(=O)N[C@H](Cc2ccc(-c3ccccc3)cc2)C(=O)N[C@@H](Cc2ccc(O)cc2)C(=O)N1 [Compound 564]	< 10	–
O=C1COc2ccc(cc2)C[C@@H](C(=O)O)NC(=O)[C@H](Cc2ccccc2)NC(=O)[C@@H](Cc2ccc(Br)cc2)NC(=O)[C@H](Cc2cccs2)N1 [Compound 399]	> 100	–
O=C(O)C[C@H](NC(=O)[C@@H]1Cc2ccc(cc2)OCC(=O)N[C@@H](Cc2cccs2)C(=O)N[C@@H](Cc2ccc(-c3ccccc3)cc2)C(=O)N[C@@H](Cc2ccccc2)C(=O)N1)C(=O)O [Compound 345]	30 to 100	–
